{"source": "patent US20210323950A1", "about": "“HERBICIDALLY ACTIVE BICYCLIC BENZOYLPYRAZOLES” (Bayer Aktiengesellschaft, priority 2018, published 2021)", "type_in_all_cases": "in vivo", "conditions_in_all_cases": "320 g/ha, scored visually after about 3 weeks vs untreated controls", "key": {"[1]": {"system": "Amaranthus retroflexus (AMARE)", "experiment": "Pre-emergence herbicidal action against AMARE", "outline": "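Formulated compounds (WP or EC) sprayed onto soil covering sown seeds, with 0.5% additive at […] water (converted). Greenhouse-grown about 3 weeks, then damage scored visually as percent versus untreated controls (100% = dead, 0% = like control).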"}, "[2]": {"system": "Setaria viridis (SETVI)", "experiment": "Pre-emergence herbicidal action against SETVI", "excerpt": "(§1) SETVI: Setaria viridis 1. Pre-Emergence Herbicidal Action and Crop Plant Compatibility Seeds of monocotyledonous and dicotyledonous weed plants and crop plants are placed in plastic or organic planting pots and covered with soil. The compounds of the invention, formulated in the form of wettable powders (WP) or as emulsion concentrates (EC), are then applied onto the surface of the covering soil as aqueous suspension or emulsion with addition of 0.5% additive at a water application rate of […] (converted). After the treatment, the pots are placed in a greenhouse and kept under good growth conditions for the trial plants. After about 3 weeks, the effect of the preparations is scored visually in comparison with untreated controls as percentages. The tables below show the herbicidal activity of numerous compounds according to the invention against important harmful plants. For example, 100% activity=the plants have died, 0% activity=like control plants."}, "[3]": {"system": "Cyperus esculentus (CYPES)", "experiment": "Pre-emergence herbicidal action against CYPES", "excerpt": "as §1, with “CYPES: Cyperus esculentus” for “SETVI: Setaria viridis”"}, "[4]": {"system": "Abutilon theophrasti (ABUTH)", "experiment": "Pre-emergence herbicidal action against ABUTH", "excerpt": "as §1, with “ABUTH: Abutilon theophrasti” for “SETVI: Setaria viridis”"}, "[5]": {"system": "Veronica persica (VERPE)", "experiment": "Pre-emergence herbicidal action against VERPE", "excerpt": "as §1, with “VERPE: Veronica persica” for “SETVI: Setaria viridis”"}, "[6]": {"system": "Echinochloa crus-galli (ECHCG)", "experiment": "Pre-emergence herbicidal action against ECHCG", "excerpt": "as §1, with “ECHCG: Echinochloa crus-galli” for “SETVI: Setaria viridis”"}, "[7]": {"system": "Viola tricolor (VIOTR)", "experiment": "Pre-emergence herbicidal action against VIOTR", "excerpt": "as §1, with “VIOTR: Viola tricolor” for “SETVI: Setaria viridis”"}, "[8]": {"system": "Stellaria media (STEME)", "experiment": "Pre-emergence herbicidal action against STEME", "outline": "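Weed seeds are sown in pots under soil, and WP or EC formulations are applied pre-emergence to the soil surface as an aqueous suspension or emulsion with 0.5% additive. After about 3 weeks in the greenhouse, effect is scored visually as % versus untreated controls (100% = plants dead, 0% = like control).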"}}, "data": [{"smiles": "Cn1ncc(C(=O)c2ccc(C(F)(F)F)c3c2OCS3(=O)=O)c1O", "note": "[Example 1-43]", "values": [{"measurement": "Pre-emergence action against AMARE", "setting": "[1]", "result": 100, "unit": "%"}, {"measurement": "Pre-emergence action against SETVI", "setting": "[2]", "result": 100, "unit": "%"}, {"measurement": "Pre-emergence action against CYPES", "setting": "[3]", "result": 100, "unit": "%"}, {"measurement": "Pre-emergence action against ABUTH", "setting": "[4]", "result": 90, "unit": "%"}, {"measurement": "Pre-emergence action against VERPE", "setting": "[5]", "result": 100, "unit": "%"}, {"measurement": "Pre-emergence action against ECHCG", "setting": "[6]", "result": 100, "unit": "%"}, {"measurement": "Pre-emergence action against VIOTR", "setting": "[7]", "result": 100, "unit": "%"}, {"measurement": "Pre-emergence action against STEME", "setting": "[8]", "result": 90, "unit": "%"}]}]}
